pEC50: −log10 of the molar value.
Tested on: FLU A (PR/8/34)
Experiment: Flu A Neuraminidase Antiviral Assay
Assay type: cell-based
Conditions: not given

With `CN1C(=O)c2c(O)c(=O)ccn2N2C(c3cc(F)ccc3C(F)(F)F)CCCC12` (single isomer, unassigned) [Compound 13A, 1-(5-fluoro-2-(trifluoromethyl)phenyl)-7-hydroxy-5-methyl-1,2,3,4,4a,5-hexahydro-dipyrido[1,2-b:2′,1′-f][1,2,4]triazine-6,8-dione] as the compound, how does the pEC50 read?
The pEC50 was < 5.09.

With `CN1C(=O)c2c(O)c(=O)ccn2N2C1CCC(O)C2(C)c1ccccc1` (centres unmarked) [Compound 137A, 2,7-dihydroxy-1,5-dimethyl-1-phenyl-1,2,3,4,4a,5-hexahydrodipyrido[1,2-b:2′,1′-f][1,2,4]triazine-6,8-dione] as the compound, how does the pEC50 read?
Its pEC50 is 6.10.

With `CN1C(=O)c2c(O)c(=O)ccn2N2C(c3c(F)cccc3F)C(CC(F)(F)F)CCC12` (single isomer, unassigned) [Compound 123D, 1-(2,6-difluorophenyl)-7-hydroxy-5-methyl-2-(2,2,2-trifluoroethyl)-1,2,3,4,4a,5-hexahydrodipyrido[1,2-b:2′,1′-f][1,2,4] triazine-6,8-dione] as the compound, how does the pEC50 read?
The pEC50 was 7.57.

With `CCCC1CCC2N(C)C(=O)c3c(O)c(=O)ccn3N2C1c1ccccc1Cl` (centres unmarked) [Compound 65B, 1-(2-chlorophenyl)-7-hydroxy-5-methyl-2-propyl-1,2,3,4,4a,5-hexahydrodipyrido[1,2-b:2′,1′-f][1,2,4]triazine-6,8-dione] as the compound, how does the pEC50 read?
The pEC50 was 8.55.

How did the pEC50 turn out when `CN1C(=O)c2c(O)c(=O)ccn2N2C1CCC1(CC(F)(F)C1)C2c1ccccc1` (single isomer, unassigned) [Compound 74C, 3,3-difluoro-7′-hydroxy-5′-methyl-1′-phenyl-3′,4′,4a′,5′-tetrahydro-1′H-spiro[cyclobutane-1,2′-dipyrido[1,2-b:2′,1′-f][1,2,4]triazine]-6′,8′-dione] was run?
The pEC50 was 7.49.

With `CN1C(=O)c2c(O)c(=O)ccn2N2[C@H](c3ccccc3)[C@H](OCC(F)F)CC[C@@H]12` (single isomer, unassigned) [Compound 153A] as the compound, how does the pEC50 read?
Its pEC50 is 5.51.

How did the pEC50 turn out when `CN1C(=O)c2c(O)c(=O)ccn2N2C(c3ccccc3)C(CC(F)(F)F)CCC12C` (single isomer, unassigned) [Compound 111A, 7-hydroxy-4a,5-dimethyl-1-phenyl-2-(2,2,2-trifluoroethyl)-1,2,3,4,4a,5-hexahydrodipyrido[1,2-b:2′,1′-f][1,2,4]triazine-6,8-dione] was run?
The pEC50 was < 5.09.

With `CCN1C(=O)c2c(O)c(=O)ccn2N2C(c3ccccc3)C(CCC(F)F)CCC12` (single isomer, unassigned) [Compound 110A, 2-(3,3-difluoropropyl)-5-ethyl-7-hydroxy-1-phenyl-1,2,3,4,4a,5-hexahydrodipyrido[1,2-b:2′,1′-f][1,2,4]triazine-6,8-dione] as the compound, how does the pEC50 read?
Its pEC50 is 5.95.

`Cc1ccccc1C1N2C(CCC13CC1C(C3)C1(F)F)N(C)C(=O)c1c(O)c(=O)ccn12` (single isomer, unassigned) [Compound 69A, 6,6-difluoro-7′-hydroxy-5′-methyl-1′-(o-tolyl)-3′,4′,4a′,5′-tetrahydro-1′H-spiro[bicyclo[3.1.0]hexane-3,2′-dipyrido[1,2-b:2′,1′-f][1,2,4]triazine]-6′,8′-dione] was tested. Which pEC50 did it give?
Its pEC50 is 8.64.

How did the pEC50 turn out when `CN1C(=O)c2c(O)c(=O)ccn2N2C1CCCC2(C)c1cccc(OC(F)F)c1` (single isomer, unassigned) [Compound 51A, 1-(3-(difluoromethoxy)phenyl)-7-hydroxy-1,5-dimethyl-1,2,3,4,4a,5-hexahydrodipyrido[1,2-b:2′,1′-f][1,2,4]triazine-6,8-dione] was run?
The pEC50 was < 5.09.

With `CN1C(=O)c2c(O)c(=O)ccn2N2C(c3ccccc3)C(CCC(F)F)CCC12` (single isomer, unassigned) [Compound 124B, 2-(3,3-difluoropropyl)-7-hydroxy-5-methyl-1-phenyl-1,2,3,4,4a,5-hexahydrodipyrido[1,2-b:2′,1′-f][1,2,4]triazine-6,8-dione] as the compound, how does the pEC50 read?
Its pEC50 is 8.80.

How did the pEC50 turn out when `CCN1C(=O)c2c(O)c(=O)ccn2N2C(c3ccccc3Br)C(CC(F)(F)F)CCC12` (single isomer, unassigned) [Compound 106A, 1-(2-bromophenyl)-5-ethyl-7-hydroxy-2-(2,2,2-trifluoroethyl)-1,2,3,4,4a,5-hexahydrodipyrido[1,2-b:2′,1′-f][1,2,4]triazine-6,8-dione] was run?
The pEC50 was 8.19.

With `Cc1ccccc1C1C(CC(F)(C(F)(F)F)C(F)(F)F)CCC2N(C)C(=O)c3c(O)c(=O)ccn3N12` (single isomer, unassigned) [Compound 81B, 7-hydroxy-5-methyl-2-(2,3,3,3-tetrafluoro-2-(trifluoromethyl)propyl)-1-(o-tolyl)-1,2,3,4,4a,5-hexahydrodipyrido[1,2-b:2′,1′-f][1,2,4]triazine-6,8-dione] as the compound, how does the pEC50 read?
The pEC50 was 6.13.

`COc1ccccc1C1CCCC2N(C)C(=O)c3c(O)c(=O)ccn3N12` (single isomer, unassigned) [Compound 19B, 7-hydroxy-1-(2-methoxyphenyl)-5-methyl-1,2,3,4,4a,5-hexahydrodipyrido[1,2-b:2′,1′-f][1,2,4]triazine-6,8-dione] was tested. Which pEC50 did it give?
Its pEC50 is 6.46.

How did the pEC50 turn out when `C=CCC1CCC2N(C)C(=O)c3c(O)c(=O)ccn3N2C1c1ccccc1Cl` (centres unmarked) [Compound 64C, 2-allyl-1-(2-chlorophenyl)-7-hydroxy-5-methyl-1,2,3,4,4a,5-hexahydrodipyrido[1,2-b:2′,1′-f][1,2,4]triazine-6,8-dione] was run?
Its pEC50 is 6.17.

`CCN1C(=O)c2c(O)c(=O)ccn2N2C(c3ccccc3F)C(CCC(F)F)CCC12` (single isomer, unassigned) [Compound 101B, 2-(3,3-difluoropropyl)-5-ethyl-1-(2-fluorophenyl)-7-hydroxy-1,2,3,4,4a,5-hexahydrodipyrido[1,2-b:2′,1′-f][1,2,4]triazine-6,8-dione] was tested. Which pEC50 did it give?
Its pEC50 is 8.25.

With `CN1C(=O)c2c(O)c(=O)ccn2N2C1CCC1(CCC(F)(F)CC1)C2c1ccccc1` (single isomer, unassigned) [Compound 72B, 4,4-difluoro-7′-hydroxy-5′-methyl-1′-phenyl-3′,4′,4a′,5′-tetrahydro-1′H-spiro[cyclohexane-1,2′-dipyrido[1,2-b:2′,1′-f][1,2,4]triazine]-6′,8′-dione] as the compound, how does the pEC50 read?
The pEC50 was 8.42.

With `Cc1ccccc1C1N2C(CCC13CC1C(C3)C1(F)F)N(C)C(=O)c1c(O)c(=O)ccn12` (single isomer, unassigned) [Compound 69C, 6,6-difluoro-7′-hydroxy-5′-methyl-1′-(o-tolyl)-3′,4′,4a′,5′-tetrahydro-1′H-spiro[bicyclo[3.1.0]hexane-3,2′-dipyrido[1,2-b:2′,1′-f][1,2,4]triazine]-6′,8′-dione] as the compound, how does the pEC50 read?
Its pEC50 is 7.05.

`CC1(c2ncc(F)cc2F)CCCC2N(CC(F)F)C(=O)c3c(O)c(=O)ccn3N21` (single isomer, unassigned) [Compound 47A, 5-(2,2-difluoroethyl)-1-(3,5-difluoropyridin-2-yl)-7-hydroxy-1-methyl-1,2,3,4,4a,5-hexahydrodipyrido[1,2-b:2′,1′-f][1,2,4]triazine-6,8-dione] was tested. Which pEC50 did it give?
The pEC50 was 7.59.

`COc1ccccc1C1C(CC(F)(F)F)CCC2N(C)C(=O)c3c(O)c(=O)ccn3N12` (single isomer, unassigned) [Compound 125B, 7-hydroxy-1-(2-methoxyphenyl)-5-methyl-2-(2,2,2-trifluoroethyl)-1,2,3,4,4a,5-hexahydrodipyrido[1,2-b:2′,1′-f][1,2,4]triazine-6,8-dione] was tested. Which pEC50 did it give?
Its pEC50 is 8.60.

With `CN1C(=O)c2c(O)c(=O)ccn2N2C(c3ccccc3Br)C(CC(F)(F)F)CCC12` (single isomer, unassigned) [Compound 89A, 1-(2-bromophenyl)-7-hydroxy-5-methyl-2-(2,2,2-trifluoroethyl)-1,2,3,4,4a,5-hexahydrodipyrido[1,2-b:2′,1′-f][1,2,4]triazine-6,8-dione] as the compound, how does the pEC50 read?
The pEC50 was 6.53.

How did the pEC50 turn out when `CC1(c2ncc(F)cc2F)CCCC2N(CC(F)F)C(=O)c3c(O)c(=O)ccn3N21` (single isomer, unassigned) [Compound 47B, 5-(2,2-difluoroethyl)-1-(3,5-difluoropyridin-2-yl)-7-hydroxy-1-methyl-1,2,3,4,4a,5-hexahydrodipyrido[1,2-b:2′,1′-f][1,2,4]triazine-6,8-dione] was run?
Its pEC50 is 5.36.

How did the pEC50 turn out when `CN1C(=O)c2c(O)c(=O)ccn2N2C(c3ccccc3)C(c3cc(F)c(F)cc3F)CCC12` (single isomer, unassigned) [Compound 86C, 7-hydroxy-5-methyl-1-phenyl-2-(2,4,5-trifluorophenyl)-1,2,3,4,4a,5-hexahydrodipyrido[1,2-b:2′,1′-f][1,2,4]triazine-6,8-dione] was run?
Its pEC50 is 6.64.

Same assay, conditions: MDCK, 48 h

With `CN1C(=O)c2c(O)c(=O)ccn2N2[C@H](c3ccccc3)[C@H](OCC3CCC3)CC[C@@H]12` [Compound 160, (1R,2R,4aS)-2-(cyclobutylmethoxy)-7-hydroxy-5-methyl-1-phenyl-1,2,3,4,4a,5-hexahydrodipyrido[1,2-b:2′,1′-f][1,2,4]triazine-6,8-dione] as the compound, how does the pEC50 read?
The pEC50 was 7.74.

`CN1C(=O)c2c(O)c(=O)c(C#N)cn2N2C(c3ccccc3)C(CC(F)(F)F)CCC12` (centres unmarked) [Compound 133, 7-hydroxy-5-methyl-6,8-dioxo-1-phenyl-2-(2,2,2-trifluoroethyl)-1,2,3,4,4a,5,6,8-octahydrodipyrido[1,2-b:2′,1′-f][1,2,4]triazine-9-carbonitrile] was tested. Which pEC50 did it give?
The pEC50 was < 6.09.

With `CCC1(c2ccccc2)CCC2N(C)C(=O)c3c(O)c(=O)ccn3N21` (centres unmarked) [Compound 62A, 1-ethyl-6-hydroxy-4-methyl-1-phenyl-2,3,3a,4-tetrahydro-1H-pyrido[2,1-f]pyrrolo[1,2-b][1,2,4]triazine-5,7-dione] as the compound, how does the pEC50 read?
The pEC50 was < 5.09.

`CN1C(=O)c2c(O)c(=O)ccn2N2C(c3ccccc3)CCC12` (centres unmarked) [Compound 60B, 6-hydroxy-4-methyl-1-phenyl-2,3,3a,4-tetrahydro-1H-pyrido[2,1-f]pyrrolo[1,2-b][1,2,4]triazine-5,7-dione] was tested. Which pEC50 did it give?
Its pEC50 is 6.05.

How did the pEC50 turn out when `CN1C(=O)c2c(O)c(=O)ccn2N2C1CCC1(CCC(F)(F)C1)C2c1ccccc1` (single isomer, unassigned) [Compound 68A, 3,3-difluoro-7′-hydroxy-5′-methyl-1′-phenyl-3′,4′,4a′,5′-tetrahydro-1′H-spiro[cyclopentane-1,2′-dipyrido[1,2-b:2′,1′-f][1,2,4]triazine]-6′,8′-dione] was run?
Its pEC50 is 6.46.

With `CN1C(=O)c2c(O)c(=O)ccn2N2[C@H](c3ccccc3)[C@H](OCCF)CC[C@@H]12` [Compound 162, (1R,2R,4aS)-2-(2-fluoroethoxy)-7-hydroxy-5-methyl-1-phenyl-1,2,3,4,4a,5-hexahydrodipyrido[1,2-b:2′,1′-f][1,2,4]triazine-6,8-dione] as the compound, how does the pEC50 read?
Its pEC50 is 6.71.

Reference: patent US20240018145A1, “[…]-DEPENDENT EN[…] TREATING OR […]” (priority 2020, published 2024)
